Holding throughout (test): inhibition of tumour cell growth, NCI panel, 48 h
The test system of test [1] is HT29 colon.
For test [2], the system named is SK-MEL-5 melanoma.
Test [3] has as its system TK-10 renal.
Test [4] has as its system HL-60(TB) leukemia.
Test [5] relates to SN12C renal.
Test [6] concerns NCI-H460 lung.
Test [7] relates to SF-268 CNS.
The test system of test [8] is NCI-H226 lung.
The test system of test [9] is RXF 393 renal.
In test [10] the test system is MDA-MB-435.

Molecules are shown by their SMILES.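 1) Cells in 96-well plates. 2) Compound, 48 h, 5 concentrations. 3) Linear interpolation between surrounding doses. 4) Unreached endpoint = highest concentration. The concentration for 50% growth inhibition is given as GI50. TGI: concentration producing complete growth inhibition.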

Regarding `COC(=O)C1(F)C(=O)NC(=O)NC1OC` (stereo not drawn), the TGI in [1], in [2], in test [3], in test [4], in [5] and in test [6] was more than 100 µM each time. The TGI in test [7] and in test [8] was more than 100 µM in each case.
As for `C[N+](C)=c1nc(N2CCOCC2)ss1`, the TGI in [9], in test [1], in test [2], in [3], in test [4] and in test [5] was more than 100 µM in each case. The TGI in [6], in test [7] and in test [8] was more than 100 µM each time.
As for `NC(=O)c1c[se]c(C2OC(COP(=O)(O)CP(=O)(O)OCC3OC(n4cnc5c(N)ncnc54)C(O)C3O)C(O)C2O)n1` (stereo not drawn), the TGI in [9], in test [1], in test [2], in test [4], in test [5] and in test [6] was more than 100 µM each time. The TGI in [7] and in test [8] was more than 100 µM throughout.
As for `CC1(C)OC(COCCOCCCCCO)C(COCCOCCCCCO)O1` (stereo not drawn), the TGI in test [9], in test [1], in test [2], in [3], in test [5] and in test [6] was more than 100 µM throughout. The TGI in test [7] and in test [8] was more than 100 µM throughout.
`COC(=O)c1cc2c3c(ccc2[nH]1)N(C(=O)c1cc2c4c(ccc2[nH]1)N(C(=O)c1cc2c5c(ccc2[nH]1)N(C(N)=O)CC5)CC4)CC3`: the TGI in [9] was 12.5 µM; in [1], more than 100 µM; in test [2], 8.68 µM; in test [3], 47 µM; in test [4], more than 70.5 µM; in test [5], 49.4 µM. Besides, the TGI in test [6] is more than 100 µM; in test [7], more than 100 µM; in [8] it was 5.76 µM.
For `Cc1ccccc1NC(=O)C(=O)CC(=O)c1ccc([N+](=O)[O-])cc1`, the TGI in [9], in test [1], in test [3], in [5], in [6] and in test [7] was more than 100 µM in each case. The TGI in test [8] is more than 100 µM.
Take `COc1cc2cccc(N=Cc3c(Br)ccc(OC)c3OC(C)C)c2cc1OC`: the TGI in test [1] was 93.7 µM; in test [2], more than 100 µM; in [3], more than 100 µM; in test [5] it was more than 100 µM; in test [6] it was more than 100 µM; in test [7], more than 100 µM.
Turning to `O=[N+]([O-])C1C2C=CC(C2)[C@H]1c1ccc(Cl)cc1Cl` (stereo partly drawn), the TGI is 74.1 µM in test [9]; 57.4 µM in test [1]; 24.7 µM in test [2]; more than 100 µM in test [3]; 53.2 µM in [4]; more than 100 µM in test [5]. In addition, the TGI in [6], in test [7] and in [8] was more than 100 µM throughout.
As for `c1ccc(NC[Si]23OCCN(CCO2)CCO3)cc1`, the TGI in test [9], in test [1], in test [2], in [3], in test [5] and in [6] was more than 100 µM each time. In addition, the TGI in [7] and in test [8] was more than 100 µM in each case.
Turning to `CC(C)(C)c1cc(CCC(=O)Nc2ccc(Cl)cc2Cl)nc(N)n1`, the TGI in [9], in test [1], in test [2], in test [4], in test [5] and in test [6] was more than 100 µM each time. The TGI in test [7] and in [8] was more than 100 µM throughout.
`O=C1C(c2ccccc2)=C(c2ccccc2)[C@H](c2ccccc2)[C@]1(Cc1nnn(-c2ccc([N+](=O)[O-])cc2)c1N1CCOCC1)c1ccccc1`: the TGI in test [9], in test [1], in [2], in test [3], in test [4] and in test [5] was more than 37.5 µM in each case. The same compound displayed a TGI in test [6] of more than 37.5 µM.
As to `O=C(O)[C@@H]1CCCC[C@@H]1C(=O)N(C1CCCCC1)C1CCCCC1`, the TGI in [1], in [2], in [3], in [4], in test [5] and in [6] was more than 100 µM throughout. Also, the TGI in test [7] and in [8] was more than 100 µM throughout.
`COc1ccc(CC2=NCCc3cc(OC)c(OC)cc32)cc1Br`: the TGI was 90.6 µM in test [9]; more than 100 µM in test [1]; 25.3 µM in [2]; more than 100 µM in [3]; 21.7 µM in [4]; more than 100 µM in test [5]. Besides, the TGI was more than 100 µM in test [6], more than 100 µM in test [7] and 50.9 µM in test [8].
With `COc1nc2c(c(O)c(C)c(=O)n2OC2OC(COC(C)=O)C(OC(C)=O)C(OC(C)=O)C2OC(C)=O)c(=O)n1C` (stereo not drawn), the TGI in [9], in test [1], in [2], in [3], in test [5] and in [6] was more than 100 µM in each case. The TGI in [7] and in [8] was more than 100 µM in each case.
For `COc1cc(O)c(C(C)=O)c(O)c1`, the TGI in test [9], in test [1], in [2], in [3], in test [5] and in test [10] was more than 100 µM each time. Also, the TGI in test [6] and in test [7] was more than 100 µM each time.
For the compound `C[C@@]12CCCC(=O)N1[C@@H](CO)C(c1ccccc1)O2` (stereo partly drawn), the TGI in test [9], in [1], in test [2], in test [3], in test [5] and in [6] was more than 100 µM in each case. Further, the TGI in test [7] is more than 100 µM.
With `CCOC(=O)C[C@@]12CCCNC1(C)CCc1ccccc12` (stereo partly drawn), the TGI in test [1], in [2], in test [3], in test [4], in test [5] and in test [6] was more than 100 µM each time. Further, in [8], the TGI is more than 100 µM.
On to `CC1=C(C(=O)CC(=O)C(=O)NC2C3CC4CC(C3)CC2C4)Sc2ccccc2N1` (stereo not drawn), for which the TGI in test [9], in [1], in test [2], in test [3], in test [4] and in [5] was more than 100 µM throughout. Moreover, the TGI in [6] and in [7] was more than 100 µM in each case.
On to `COc1ccc(C2NCCc3c2[nH]c2ccccc32)cc1` (stereo not drawn), for which the TGI in test [9] is more than 100 µM; in test [1], more than 100 µM; in [2] it was 66.1 µM; in test [3] it was more than 100 µM; in [4], more than 100 µM; in test [5] it was more than 100 µM. Besides, the TGI in test [6], in test [7] and in [8] was more than 100 µM in each case.
For the compound `CC1(C)CC(=O)c2c(oc3cc(O)c(O)cc23)C1`, the TGI is more than 100 µM in test [9]; more than 100 µM in test [1]; 32.5 µM in test [2]; more than 100 µM in test [3]; 48.5 µM in test [4]; more than 100 µM in [5]. Also, the TGI was 85 µM in test [6] and more than 100 µM in test [7].
As to `COc1ccc(-c2nc3c(c(=O)n2C(C)=O)C(c2ccc(Cl)cc2)c2sc4c(Cl)cccc4c2O3)cc1` (stereo not drawn), the GI50 is 0.235 µM in [9]; 0.325 µM in test [1]; 0.297 µM in [2]; 0.846 µM in [3]; 0.3 µM in test [4]; 0.64 µM in test [5]. The GI50 is 0.365 µM in test [6], 0.68 µM in test [7] and 0.329 µM in test [8]. Further, the TGI in test [9] amounted to 0.675 µM; in test [1], 1.09 µM; in test [2], 1.11 µM; in test [3] it was 2.67 µM; in [4], 0.982 µM; in test [5] it was 2.23 µM. The results for the TGI in [6], in [7] and in test [8] were 1.38 µM, 3.82 µM and 2.24 µM, respectively.
On to `COc1ccc2[nH]c3c(=O)[nH]ncc3c2c1`, for which the TGI in test [1], in test [2], in [3], in test [4], in test [6] and in test [7] was more than 100 µM throughout. Moreover, the TGI in test [8] is more than 100 µM.
For `CC(=O)OCCC(O[Si](c1ccccc1)(c1ccccc1)C(C)(C)C)C(C)(C)O` (stereo not drawn), the TGI in test [9] is 36.6 µM; in [1], 66.9 µM; in test [2] it was more than 100 µM; in [3], more than 100 µM; in test [5], 34.2 µM; in test [6] it was more than 100 µM. For the same compound, the TGI in [7] was more than 100 µM; in test [8] it was 36 µM.
Consider `CC[P+]1(CC)CCCC1`, for which the TGI in test [9], in test [1], in test [2], in [3], in test [5] and in test [6] was more than 100 µM in each case. In [7], this compound yielded a TGI of more than 100 µM.
On to `NS(=O)(=O)c1ccc(NC(=O)c2cccn3c(=O)c4ccccc4nc23)cc1`, for which the TGI in test [9], in test [1], in [2], in test [3], in test [4] and in test [5] was more than 100 µM each time. Moreover, the TGI in test [6], in test [7] and in test [8] was more than 100 µM in each case.
For the compound `C/C(=N/NC(=O)CC(=O)N(C(=O)c1ccccc1Cl)c1ccc(C)cc1)c1cc2ccccc2oc1=O`, the TGI in test [9], in test [1], in test [2], in [3], in test [4] and in test [5] was more than 100 µM each time. For the same compound, the TGI in test [6], in test [7] and in test [8] was more than 100 µM throughout.
As to `COc1ccc(NC(=O)c2sc3nc4c(cc3c2N)CCCC4)cc1`, the GI50 in test [9] was 0.452 µM; in test [1] it was 0.345 µM; in [2], 0.355 µM; in [4] it was 0.252 µM; in test [5] it was 1.43 µM; in test [6], 0.543 µM. For the same compound, the GI50 in test [7] is 0.899 µM. For the same compound, the TGI was 4.72 µM in [9]; 3.36 µM in test [1]; 11 µM in [2]; 0.624 µM in test [4]; more than 100 µM in test [5]; 19.8 µM in test [6]. Further, the TGI in [7] is more than 100 µM.
Consider `CC(=O)[CH-]C(=O)c1ccccc1.CC(=O)[CH-]C(=O)c1ccccc1.[CH2-]CCC.[CH2-]CCC.[Sn+4]`, for which the GI50 in test [9] was 0.258 µM; in test [1], 1.73 µM; in [2], 0.625 µM; in test [3] it was 1.06 µM; in test [4], 0.322 µM; in test [5] it was 1.14 µM. Besides, the results for the GI50 in [6], in test [7] and in [8] were 2.11 µM, 1.19 µM and 0.526 µM, respectively. Moreover, the TGI in [9] was 0.784 µM; in [1], 3.39 µM; in [2] it was 1.97 µM; in [3] it was 2.31 µM; in test [4] it was 1.09 µM; in test [5] it was 2.68 µM. Besides, the results for the TGI in [6], in test [7] and in [8] were 4.62 µM, 3.39 µM and 2.28 µM, respectively.
For `Cc1nnc(N=Nc2c(O)[nH]c3ccccc23)n1N`, the TGI in [9], in test [1], in test [2], in test [3], in test [4] and in [5] was more than 100 µM throughout. Further, the TGI in [6], in [7] and in test [8] was more than 100 µM each time.

Source of the values: PubChem BioAssay (NCI).
